Experiments:
[1] = target: recombinant human TDP1 (hTDP1) (Homo sapiens, UniProt Q9NUW8); assay: Inhibition of recombinant human TDP1; format: biochemical, H. sapiens
[2] = target: T1, recombinant human TDP2 (hTDP2) (Homo sapiens, UniProt O95551); assay: Inhibition of recombinant human TDP2; format: biochemical, H. sapiens
T1 sequence (O95551 1-362): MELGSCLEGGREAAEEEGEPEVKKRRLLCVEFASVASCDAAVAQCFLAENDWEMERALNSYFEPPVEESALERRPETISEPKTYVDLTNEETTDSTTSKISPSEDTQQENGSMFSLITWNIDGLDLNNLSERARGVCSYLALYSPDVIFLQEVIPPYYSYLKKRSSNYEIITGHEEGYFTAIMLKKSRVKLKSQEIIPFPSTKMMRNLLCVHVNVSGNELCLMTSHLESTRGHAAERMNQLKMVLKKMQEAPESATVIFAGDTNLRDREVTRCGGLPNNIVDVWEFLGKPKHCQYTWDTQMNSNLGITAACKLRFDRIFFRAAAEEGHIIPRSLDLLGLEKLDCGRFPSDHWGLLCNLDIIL

Chain of recombinant human TDP1 (hTDP1) (Q9NUW8 whole entry): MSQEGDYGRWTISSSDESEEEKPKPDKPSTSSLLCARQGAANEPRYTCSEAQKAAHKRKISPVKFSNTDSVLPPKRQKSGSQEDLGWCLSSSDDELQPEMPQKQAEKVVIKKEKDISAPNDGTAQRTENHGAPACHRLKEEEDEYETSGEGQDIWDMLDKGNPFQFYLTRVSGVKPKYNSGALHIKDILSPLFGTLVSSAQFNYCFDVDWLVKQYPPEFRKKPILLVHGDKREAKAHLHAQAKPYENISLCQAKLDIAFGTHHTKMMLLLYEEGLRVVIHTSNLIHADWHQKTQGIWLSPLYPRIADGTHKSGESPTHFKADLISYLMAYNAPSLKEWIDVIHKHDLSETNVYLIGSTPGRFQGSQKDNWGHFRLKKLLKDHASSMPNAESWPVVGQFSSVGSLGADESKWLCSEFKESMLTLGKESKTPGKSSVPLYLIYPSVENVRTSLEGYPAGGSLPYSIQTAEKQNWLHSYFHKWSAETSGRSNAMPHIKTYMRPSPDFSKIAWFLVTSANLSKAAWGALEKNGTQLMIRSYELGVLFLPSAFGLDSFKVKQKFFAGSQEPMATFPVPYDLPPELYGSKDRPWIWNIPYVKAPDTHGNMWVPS

Row | Compound | IC50 [1] | IC50 [2]
1 | COc1ccc(CC2C(=O)N(c3ccc([N+](=O)[O-])cc3)N=C2C(=O)O)cc1Oc1ccc(F)cc1 (stereo not drawn) [Compound 21] | > 200 µM | 20 µM
2 | O=C(Cc1ccccc1)NC(CSSCC(NC(=O)Cc1ccccc1)C(=O)O)C(=O)O (stereo not drawn) [NSC3198] |  | 9.5 µM

Source: publication PMC4939481 (Bioorganic & medicinal chemistry letters, 2016)
